Data on two molecules can be found in PMC10698858 (Journal of chemical information and modeling, 2023).

Series [1] relates to Artemia salina. In words: Brine shrimp lethality. The class given is in vivo. As to conditions: for % mortality / dead / live: 10 nauplii, 24 hrs.
In series [2] the target is blaCTX-M15 (Escherichia coli O25b:H4, UniProt A0A5R8T042). In words: Beta-lactamase inhibition assay. The class given is biochemical, Salmonella typhi. Conditions: for BL inhibitory activity: nitrocefin, 490 nm.
blaCTX-M15, sequence (A0A5R8T042 29-291): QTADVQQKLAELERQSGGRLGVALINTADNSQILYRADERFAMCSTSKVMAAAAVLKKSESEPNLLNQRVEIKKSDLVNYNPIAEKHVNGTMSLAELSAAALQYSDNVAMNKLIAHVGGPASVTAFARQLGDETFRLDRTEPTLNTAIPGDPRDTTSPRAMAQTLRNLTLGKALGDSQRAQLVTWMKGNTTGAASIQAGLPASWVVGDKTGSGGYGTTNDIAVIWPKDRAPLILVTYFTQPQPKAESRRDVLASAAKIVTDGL

On to `COc1cccc2c1C(=O)c1c(O)c3c(c(O)c1C2=O)C[C@@](O)(C(=O)CO)C[C@@H]3O[C@H]1C[C@H](N)[C@H](O)[C@H](C)O1` [Doxorubicin], for which the “% mortality” value is 10% in series [1] (25 μg/ml), 20% in series [1] (50 μg/ml), 20% in series [1] (75 μg/ml) and 30% in series [1] (100 μg/ml). Moreover, the dead in series [1] (25 μg/ml) is 1; in series [1] (50 μg/ml), 2; in series [1] (75 μg/ml), 2; in series [1] (100 μg/ml) it was 3. For the same molecule, the live in series [1] (25 μg/ml) was 9; in series [1] (50 μg/ml), 8; in series [1] (75 μg/ml), 8; in series [1] (100 μg/ml) it was 7. In series [1] (brine shrimp, tested 25-100 μg/ml), this molecule had an LD50 of 187 µg/mL.

For the molecule `O=C(O)[C@H]1/C(=C/CO)O[C@@H]2CC(=O)N21` [abcam Clavulanic acid, Clavulanic acid], in series [2], the Ki (commonly the dissociation constant of the complex between target and ligand, obtained from inhibition or displacement) amounted to 38.9 µM. Also, the BL inhibitory activity in series [2] (concentration 0.03 ug/ml) stood at 0.9345; in series [2] (concentration 0.09 ug/ml), 0.8498; in series [2] (concentration 1 ug/ml), 0.753; in series [2] (concentration 5 ug/ml), 0.623; in series [2] (concentration 10 ug/ml), 0.53; in series [2] (concentration 50 ug/ml), 0.239. Moreover, the BL inhibitory activity in series [2] (concentration 100 ug/ml) was found to be 0.09; in series [2] (concentration 150 ug/ml), 0.02; in series [2] (concentration 200 ug/ml) it was 0.015.
